The NIST ThermoML archive (doi:10.1016/j.tca.2015.06.017)

Experiment: xn = mol fraction of the nth substance listed
Settings: Liquid, Vibrating tube method

CCCCCl [1-chlorobutane] + CCCCCCC
mass density [kg/m3]
Settings | 303.15 K | 313.15 K | 323.15 K
100 kPa, x2 = 0.0508 | 860.95 | 849.81 | 838.56
100 kPa, x2 = 0.0994 | 847.86 | 836.88 | 825.81
100 kPa, x2 = 0.2013 | 822 | 811.33 | 800.61
100 kPa, x2 = 0.3015 | 798.55 | 788.17 | 777.72
100 kPa, x2 = 0.4008 | 777.02 | 766.92 | 756.76
100 kPa, x2 = 0.5026 | 756.58 | 746.79 | 736.89
100 kPa, x2 = 0.6012 | 738.17 | 728.67 | 719.03
100 kPa, x2 = 0.7003 | 720.97 | 711.73 | 702.32
100 kPa, x2 = 0.7995 | 704.97 | 695.88 | 686.71
100 kPa, x2 = 0.9011 | 689.64 | 680.8 | 671.83
100 kPa, x2 = 0.9494 | 682.71 | 673.98 | 665.13
2000 kPa, x2 = 0.0508 | 863.1 | 852.16 | 840.94
2000 kPa, x2 = 0.0994 | 849.99 | 839.22 | 828.16
2000 kPa, x2 = 0.2013 | 824.16 | 813.71 | 802.98
2000 kPa, x2 = 0.3015 | 800.7 | 790.49 | 780.1
2000 kPa, x2 = 0.4008 | 779.13 | 769.27 | 759.09
2000 kPa, x2 = 0.5026 | 758.72 | 749.1 | 739.17
2000 kPa, x2 = 0.6012 | 740.28 | 730.92 | 721.27
2000 kPa, x2 = 0.7003 | 723.08 | 713.94 | 704.55
2000 kPa, x2 = 0.7995 | 707.04 | 698.12 | 688.99
2000 kPa, x2 = 0.9011 | 691.71 | 683.02 | 674.07
2000 kPa, x2 = 0.9494 | 684.78 | 676.19 | 667.35
5000 kPa, x2 = 0.0508 | 866.34 | 855.66 | 844.77
5000 kPa, x2 = 0.0994 | 853.23 | 842.7 | 831.99
5000 kPa, x2 = 0.2013 | 827.36 | 817.15 | 806.76
5000 kPa, x2 = 0.3015 | 803.89 | 793.89 | 783.86
5000 kPa, x2 = 0.4008 | 782.29 | 772.63 | 762.86
5000 kPa, x2 = 0.5026 | 761.81 | 752.4 | 742.92
5000 kPa, x2 = 0.6012 | 743.41 | 734.17 | 724.95
5000 kPa, x2 = 0.7003 | 726.22 | 717.17 | 708.22
5000 kPa, x2 = 0.7995 | 710.1 | 701.32 | 692.58
5000 kPa, x2 = 0.9011 | 694.74 | 686.16 | 677.65
5000 kPa, x2 = 0.9494 | 687.8 | 679.3 | 670.89
7000 kPa, x2 = 0.0508 | 868.42 | 857.83 | 847.24
7000 kPa, x2 = 0.0994 | 855.3 | 844.87 | 834.44
7000 kPa, x2 = 0.2013 | 829.43 | 819.33 | 809.21
7000 kPa, x2 = 0.3015 | 805.92 | 796.12 | 786.24
7000 kPa, x2 = 0.4008 | 784.34 | 774.82 | 765.22
7000 kPa, x2 = 0.5026 | 763.83 | 754.59 | 745.31
7000 kPa, x2 = 0.6012 | 745.42 | 736.35 | 727.32
7000 kPa, x2 = 0.7003 | 728.16 | 719.35 | 710.53
7000 kPa, x2 = 0.7995 | 712.06 | 703.48 | 694.9
7000 kPa, x2 = 0.9011 | 696.65 | 688.32 | 679.93
7000 kPa, x2 = 0.9494 | 689.71 | 681.45 | 673.17
10000 kPa, x2 = 0.0508 | 871.51 | 861.16 | 850.72
10000 kPa, x2 = 0.0994 | 858.41 | 848.2 | 837.9
10000 kPa, x2 = 0.2013 | 832.51 | 822.59 | 812.61
10000 kPa, x2 = 0.3015 | 808.97 | 799.33 | 789.63
10000 kPa, x2 = 0.4008 | 787.38 | 777.95 | 768.57
10000 kPa, x2 = 0.5026 | 766.86 | 757.71 | 748.59
10000 kPa, x2 = 0.6012 | 748.41 | 739.49 | 730.62
10000 kPa, x2 = 0.7003 | 731.09 | 722.43 | 713.78
10000 kPa, x2 = 0.7995 | 714.97 | 706.51 | 698.05
10000 kPa, x2 = 0.9011 | 699.57 | 691.27 | 683.06
10000 kPa, x2 = 0.9494 | 692.59 | 684.4 | 676.28
20000 kPa, x2 = 0.0508 | 881.1 | 871.22 | 861.47
20000 kPa, x2 = 0.0994 | 867.95 | 858.21 | 848.64
20000 kPa, x2 = 0.2013 | 841.94 | 832.53 | 823.24
20000 kPa, x2 = 0.3015 | 818.31 | 809.13 | 800.16
20000 kPa, x2 = 0.4008 | 796.57 | 787.71 | 779.03
20000 kPa, x2 = 0.5026 | 775.93 | 767.37 | 758.92
20000 kPa, x2 = 0.6012 | 757.4 | 749.02 | 740.82
20000 kPa, x2 = 0.7003 | 740.01 | 731.86 | 723.85
20000 kPa, x2 = 0.7995 | 723.78 | 715.81 | 708.08
20000 kPa, x2 = 0.9011 | 708.24 | 700.5 | 692.95
20000 kPa, x2 = 0.9494 | 701.2 | 693.56 | 686.11
30000 kPa, x2 = 0.0508 | 889.77 | 880.41 | 871.14
30000 kPa, x2 = 0.0994 | 876.56 | 867.36 | 858.24
30000 kPa, x2 = 0.2013 | 850.48 | 841.53 | 832.76
30000 kPa, x2 = 0.3015 | 826.73 | 818.07 | 809.58
30000 kPa, x2 = 0.4008 | 804.94 | 796.54 | 788.23
30000 kPa, x2 = 0.5026 | 784.21 | 776 | 767.99
30000 kPa, x2 = 0.6012 | 765.55 | 757.6 | 749.78
30000 kPa, x2 = 0.7003 | 748.07 | 740.3 | 732.75
30000 kPa, x2 = 0.7995 | 731.77 | 724.2 | 716.78
30000 kPa, x2 = 0.9011 | 716.14 | 708.75 | 701.56
30000 kPa, x2 = 0.9494 | 709.05 | 701.75 | 694.65
40000 kPa, x2 = 0.0508 | 897.85 | 888.86 | 880.1
40000 kPa, x2 = 0.0994 | 884.61 | 875.75 | 867.14
40000 kPa, x2 = 0.2013 | 858.37 | 849.87 | 841.52
40000 kPa, x2 = 0.3015 | 834.56 | 826.26 | 818.18
40000 kPa, x2 = 0.4008 | 812.66 | 804.63 | 796.79
40000 kPa, x2 = 0.5026 | 791.81 | 783.99 | 776.38
40000 kPa, x2 = 0.6012 | 773.04 | 765.46 | 758.03
40000 kPa, x2 = 0.7003 | 755.46 | 748.11 | 740.88
40000 kPa, x2 = 0.7995 | 739 | 731.87 | 724.82
40000 kPa, x2 = 0.9011 | 723.24 | 716.29 | 709.43
40000 kPa, x2 = 0.9494 | 716.11 | 709.25 | 702.46
50000 kPa, x2 = 0.0508 | 905.34 | 896.61 | 888.16
50000 kPa, x2 = 0.0994 | 892.06 | 883.49 | 875.18
50000 kPa, x2 = 0.2013 | 865.75 | 857.51 | 849.47
50000 kPa, x2 = 0.3015 | 841.81 | 833.86 | 826.06
50000 kPa, x2 = 0.4008 | 819.81 | 812.1 | 804.52
50000 kPa, x2 = 0.5026 | 798.87 | 791.37 | 784.01
50000 kPa, x2 = 0.6012 | 780.02 | 772.75 | 765.61
50000 kPa, x2 = 0.7003 | 762.36 | 755.31 | 748.29
50000 kPa, x2 = 0.7995 | 745.84 | 738.98 | 732.14
50000 kPa, x2 = 0.9011 | 729.99 | 723.31 | 716.65
50000 kPa, x2 = 0.9494 | 722.81 | 716.21 | 709.64
60000 kPa, x2 = 0.0508 | 912.31 | 903.88 | 895.85
60000 kPa, x2 = 0.0994 | 899.01 | 890.72 | 882.82
60000 kPa, x2 = 0.2013 | 872.64 | 864.67 | 856.99
60000 kPa, x2 = 0.3015 | 848.6 | 840.92 | 833.5
60000 kPa, x2 = 0.4008 | 826.55 | 819.09 | 811.83
60000 kPa, x2 = 0.5026 | 805.54 | 798.31 | 791.24
60000 kPa, x2 = 0.6012 | 786.57 | 779.58 | 772.72
60000 kPa, x2 = 0.7003 | 768.84 | 762 | 755.34
60000 kPa, x2 = 0.7995 | 752.23 | 745.59 | 739.04
60000 kPa, x2 = 0.9011 | 736.26 | 729.82 | 723.43
60000 kPa, x2 = 0.9494 | 729.04 | 722.67 | 716.36
65000 kPa, x2 = 0.0508 | 915.61 | 907.45 | 899.38
65000 kPa, x2 = 0.0994 | 902.28 | 894.26 | 886.34
65000 kPa, x2 = 0.2013 | 875.88 | 868.13 | 860.51
65000 kPa, x2 = 0.3015 | 851.83 | 844.29 | 836.96
65000 kPa, x2 = 0.4008 | 829.71 | 822.37 | 815.25
65000 kPa, x2 = 0.5026 | 808.61 | 801.56 | 794.63
65000 kPa, x2 = 0.6012 | 789.63 | 782.77 | 776.07
65000 kPa, x2 = 0.7003 | 771.84 | 765.13 | 758.61
65000 kPa, x2 = 0.7995 | 755.19 | 748.66 | 742.31
65000 kPa, x2 = 0.9011 | 739.21 | 732.82 | 726.65
65000 kPa, x2 = 0.9494 | 731.94 | 725.63 | 719.56
